Experimental data from patent US20230364057A1, “BACTERIAL DNA GYRASE INHIBITORS AND METHODS OF USE THEREOF” (THE FLORIDA INTERNATIONAL UNIVERSITY BOARD OF TRUSTEES, priority 2022, published 2023).
Converted amounts (≈) assume the structure as drawn. “And” between values parts separate entries of the source, which are not always exact repeats. Equal values may be shown once. “Also recorded” adds a separate entry of the source. Read-outs that look alike come from different tables or passages of the source.

Tests used:
MRSA = experiment: Minimum inhibitory concentration, broth microdilution; settings: Staphylococcus aureus
Description: (§2) Antibacterial minimum inhibitory concentrations (MICs) were obtained from three independent experiments using broth microdilution methods in 96-well plates according to Clinical and Laboratory Standards Institute guidelines. Cells were culture from singles colonies in MHIIB medium for 24 h at 37° C. in agitation (200 RPM). The cultures were then diluted using the same media to reach an OD600 of 0.1. Then, 50 µL of the diluted cultures were added to the plates holding 50 µL of serially diluted compounds in MHIIB. The plates were incubated at 37° C. for 20 h. The starting inoculum was fixated to 10^5 colony-forming units per ml.

E. coli imp = experiment: microbe, parasite or virus in culture; settings: Escherichia coli, read-out: MIC E. coli imp BAS3023
S. aureus (ATCC 14775) = experiment: Minimum inhibitory concentration, broth microdilution; settings: Staphylococcus aureus, ATCC14775, read-out: MIC S. aureus ATCC 14775
Description: as §2

E. coli (ATCC 25922) = experiment: as above; settings: Escherichia coli
Description: as §2

B. subtilis (ATCC 6633) = experiment: as above; settings: Bacillus subtilis, ATCC6633, read-out: MIC B. subtilis ATCC 6633
Description: as §2

E. coli DNA gyrase [1] = biological target: T1, E. coli DNA gyrase (Escherichia coli (strain K12), UniProt P0AES4+P0AES6); experiment: SDFQ-based DNA gyrase inhibition assay; type: biochemical; settings: Table 8; read-out: IC50 Gyrase SDFQ
Description: 100 ng of DNA gyrase was used to supercoil the rx pAB1_FL905 in the presence of different concentrations of a gyrase inhibitor. […] The IC50 values were estimated by nonlinear fitting of the following equation: […]
where F is the fluorescence intensity at the x concentration of an min inhibitor. Fmax and Fmin are the maximum and minimum fluorescence of the DNA sample, respectively. P is a slope parameter.

E. coli DNA gyrase [2] = biological target: T1, E. coli DNA gyrase; experiment: Agarose gel-based DNA gyrase inhibition assay; type: biochemical; settings: Table 8; read-out: IC50 Gyrase Gel-based
Description: 100 ng of DNA gyrase was used to supercoil the rx pAB1 in the presence of different concentrations of a gyrase inhibitor. […] Samples were analyzed by electrophoresis in 1% w/v agarose gels followed by ethidium bromide staining and photographed under UV light.

[3] = biological target: T2, E. coli DNA topoisomerase IV (Escherichia coli (strain K12), UniProt P0AFI2+P20083); experiment: E. coli DNA topoisomerase IV relaxation assay (gel-based); type: biochemical; settings: for IC50: IC50 Topoisomerase IV Gel-based, Table 8
T2 sequence (P0AFI2 whole entry, looked up): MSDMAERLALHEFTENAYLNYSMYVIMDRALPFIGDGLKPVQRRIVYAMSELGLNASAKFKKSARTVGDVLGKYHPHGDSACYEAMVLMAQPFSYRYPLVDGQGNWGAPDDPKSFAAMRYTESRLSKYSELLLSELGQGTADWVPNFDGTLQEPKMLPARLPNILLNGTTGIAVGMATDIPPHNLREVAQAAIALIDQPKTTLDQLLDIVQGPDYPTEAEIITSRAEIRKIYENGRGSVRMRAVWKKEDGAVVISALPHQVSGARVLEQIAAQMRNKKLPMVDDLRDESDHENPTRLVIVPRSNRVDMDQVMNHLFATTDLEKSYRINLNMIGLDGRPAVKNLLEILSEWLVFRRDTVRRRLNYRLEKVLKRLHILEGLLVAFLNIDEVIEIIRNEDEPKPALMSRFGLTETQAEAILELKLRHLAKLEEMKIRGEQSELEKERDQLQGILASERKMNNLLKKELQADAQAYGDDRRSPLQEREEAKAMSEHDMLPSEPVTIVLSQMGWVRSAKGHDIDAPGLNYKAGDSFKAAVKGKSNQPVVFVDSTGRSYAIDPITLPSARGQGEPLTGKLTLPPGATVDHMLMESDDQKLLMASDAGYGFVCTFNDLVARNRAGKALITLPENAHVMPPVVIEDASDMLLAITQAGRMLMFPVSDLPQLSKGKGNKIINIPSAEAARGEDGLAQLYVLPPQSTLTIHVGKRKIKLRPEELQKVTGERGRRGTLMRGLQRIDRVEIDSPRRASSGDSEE
T2 sequence (P20083 whole entry, looked up): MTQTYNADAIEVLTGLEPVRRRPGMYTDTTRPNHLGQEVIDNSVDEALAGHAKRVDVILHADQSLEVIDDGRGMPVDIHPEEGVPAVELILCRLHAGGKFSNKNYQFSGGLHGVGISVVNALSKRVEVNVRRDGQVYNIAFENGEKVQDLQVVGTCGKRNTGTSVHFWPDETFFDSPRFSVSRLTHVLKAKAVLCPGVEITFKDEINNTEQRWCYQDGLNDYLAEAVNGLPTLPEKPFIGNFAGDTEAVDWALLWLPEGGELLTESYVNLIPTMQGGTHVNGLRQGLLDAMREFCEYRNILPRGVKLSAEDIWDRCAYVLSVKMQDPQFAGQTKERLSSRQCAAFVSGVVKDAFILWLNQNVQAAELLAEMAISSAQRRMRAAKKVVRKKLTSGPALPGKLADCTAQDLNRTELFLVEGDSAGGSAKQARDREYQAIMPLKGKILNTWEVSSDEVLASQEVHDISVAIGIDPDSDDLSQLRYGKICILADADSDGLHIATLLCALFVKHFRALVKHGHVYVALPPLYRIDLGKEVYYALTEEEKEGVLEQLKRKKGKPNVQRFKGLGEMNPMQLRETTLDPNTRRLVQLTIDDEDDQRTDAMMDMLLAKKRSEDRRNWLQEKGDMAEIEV
Description: (§1) Relaxation assays by E. coli DNA topoisomerase IV and the ATPase assays were performed. […] Lane 1 is supercoiled plasmid pAB1. […] The supercoiled, fluorescently-labeled plasmid pAB1_FL905 was used.

[4] = biological target: T2, E. coli DNA topoisomerase IV; experiment: SDFQ-based DNA relaxation assay with E. coli DNA topoisomerase IV; type: biochemical
Description: as §1

E. coli DNA gyrase [5] = biological target: T1, E. coli DNA gyrase; experiment: SDFQ HTS primary assay (1536-well, pAB1_FL905); type: biochemical; settings: for inhibition at 5 µM: read-out: inhibition activities against E. coli DNA gyrase
Description: SDFQ HTS primary assay using pAB1_FL905 was performed in 2 µL of (1 xDNA gyrase buffer: 20 mM Tris-Acetate pH 7.9, 50 mM KAc, 10 mM MgCl2, 2 mM DTT, 1 mM ATP, 0.1 mg/mL BSA). […] 3) Spun plate at 800 rpm for 30 seconds.

[6] = biological target: human DNA topoisomerase IIα (Homo sapiens (Human), UniProt P11388); experiment: Agarose gel-based inhibition assay against human DNA topoisomerase IIα; type: biochemical; settings: gallates at 100 µM
human DNA topoisomerase IIα, sequence (P11388 whole entry): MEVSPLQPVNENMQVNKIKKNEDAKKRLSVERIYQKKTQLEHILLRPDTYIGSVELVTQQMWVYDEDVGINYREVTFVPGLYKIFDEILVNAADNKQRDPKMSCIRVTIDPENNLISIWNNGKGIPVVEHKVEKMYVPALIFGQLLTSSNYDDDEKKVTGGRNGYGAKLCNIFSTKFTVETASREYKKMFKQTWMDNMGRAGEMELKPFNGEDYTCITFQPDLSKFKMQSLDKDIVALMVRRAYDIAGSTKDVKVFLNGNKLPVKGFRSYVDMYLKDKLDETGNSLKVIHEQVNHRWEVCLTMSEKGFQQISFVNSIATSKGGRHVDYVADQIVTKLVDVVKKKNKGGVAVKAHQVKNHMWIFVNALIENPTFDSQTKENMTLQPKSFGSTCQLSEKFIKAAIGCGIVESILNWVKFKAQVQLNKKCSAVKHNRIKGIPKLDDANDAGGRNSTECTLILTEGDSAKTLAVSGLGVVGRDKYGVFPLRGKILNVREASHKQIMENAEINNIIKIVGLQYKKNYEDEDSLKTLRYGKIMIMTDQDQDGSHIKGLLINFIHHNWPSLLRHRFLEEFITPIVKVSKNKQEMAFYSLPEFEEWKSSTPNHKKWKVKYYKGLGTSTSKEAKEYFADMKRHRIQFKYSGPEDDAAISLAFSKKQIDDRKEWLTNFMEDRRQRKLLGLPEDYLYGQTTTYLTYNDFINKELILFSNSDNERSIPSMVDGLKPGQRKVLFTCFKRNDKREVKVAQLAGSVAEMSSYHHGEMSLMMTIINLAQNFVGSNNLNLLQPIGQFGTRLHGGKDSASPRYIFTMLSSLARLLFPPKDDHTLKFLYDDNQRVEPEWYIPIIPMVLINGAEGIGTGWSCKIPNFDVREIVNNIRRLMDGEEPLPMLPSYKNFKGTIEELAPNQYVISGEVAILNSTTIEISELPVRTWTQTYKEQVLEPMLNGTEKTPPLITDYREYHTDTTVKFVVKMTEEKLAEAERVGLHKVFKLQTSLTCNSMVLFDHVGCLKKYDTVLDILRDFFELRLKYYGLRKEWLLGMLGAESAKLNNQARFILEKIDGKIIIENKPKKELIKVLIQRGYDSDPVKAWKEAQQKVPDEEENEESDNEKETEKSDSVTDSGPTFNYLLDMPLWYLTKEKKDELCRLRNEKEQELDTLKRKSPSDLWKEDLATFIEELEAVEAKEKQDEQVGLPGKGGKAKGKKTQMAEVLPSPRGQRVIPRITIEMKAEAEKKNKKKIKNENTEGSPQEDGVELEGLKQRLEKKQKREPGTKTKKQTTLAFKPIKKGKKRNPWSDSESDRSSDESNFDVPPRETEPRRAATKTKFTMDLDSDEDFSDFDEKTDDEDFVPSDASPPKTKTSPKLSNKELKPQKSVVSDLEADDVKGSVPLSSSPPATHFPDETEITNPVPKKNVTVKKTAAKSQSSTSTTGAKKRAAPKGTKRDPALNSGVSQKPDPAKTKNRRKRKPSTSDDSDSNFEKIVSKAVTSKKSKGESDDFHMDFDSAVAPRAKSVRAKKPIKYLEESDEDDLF

Mtb DNA gyrase = Mtb DNA gyrase (Mycobacterium tuberculosis (strain ATCC 25618 / H37Rv), UniProt P9WG45+P9WG47); experiment: Mtb DNA gyrase inhibition assay (gel-based); type: biochemical
Description: The IC50 against E. coli (A) and Mtb (C) gyrase were determined using the gel-based gyrase inhibition assays. The gyrase mediated DNA cleavage assays (B and D) were performed using pBR322. (A) 229 inhibits E. coli gyrase. Lane 1, rx pAB1. […] Lane 1, rx pAB1. […] 100 µM of CPDs were used. Symbols rx, nk, In, and sc represent relaxed, nicked, linear, and supercoiled DNA, respectively.
Agarose gel-based DNA gyrase inhibition assays were performed in 30 µL of 1 ×gyrase buffer (35 mM Tris-HCl, 24 mM KCl, 4 mM MgCl2, 2 mM DTT, 1.75 mM ATP, 0.1 mg/mL BSA, 6.5% glycerol, pH7.5) containing 400 ng of rx pAB1 at 37° C. 100 ng of DNA gyrase was used to supercoil the rx pAB1 in the presence of different concentrations of a gyrase inhibitor. After 15 minutes of incubation with the inhibitor at 37° C., all reactions were stopped with 1 µL of stop solution (3% SDS and 250 mM EDTA). Samples were analyzed by electrophoresis in 1% w/v agarose gels followed by ethidium bromide staining and photographed under UV light.

E. coli DNA gyrase [7] = biological target: T1, E. coli DNA gyrase; experiment: DNA gyrase mediated DNA cleavage assay; type: biochemical; settings: pBR322
Description: 250 ng of supercoiled pBR322 plasmid were incubated with 50 nM of E. coli DNA gyrase in reactions containing 35 mM Tris-HCl, 24 mM KCl, 4 mM MgCl2, 2 mM DTT, 0.1 mg/mL BSA, 6.5% glycerol, and 1.75 mM ATP, in presence of 200 µM of compounds, at 37° C. for 15 min. Then, 0.2% (w/v) of SDS and 0.1 mg/mL proteinase K were added, and samples were incubated at 37° C. for 1 h. […] Samples were examined by electrophoresis in 1% w/v agarose gel containing 0.5 µg/mL ethidium bromide and photographed under UV light.

E. coli DNA gyrase [8] = biological target: T1, E. coli DNA gyrase; experiment: biochemical; type: biochemical
[9] = biological target: E. coli DNA topoisomerase I (Escherichia coli (strain K12), UniProt P06612); experiment: E. coli DNA topoisomerase I inhibition; type: biochemical; settings: gallates at 100 µM
E. coli DNA topoisomerase I, sequence (P06612 whole entry, looked up): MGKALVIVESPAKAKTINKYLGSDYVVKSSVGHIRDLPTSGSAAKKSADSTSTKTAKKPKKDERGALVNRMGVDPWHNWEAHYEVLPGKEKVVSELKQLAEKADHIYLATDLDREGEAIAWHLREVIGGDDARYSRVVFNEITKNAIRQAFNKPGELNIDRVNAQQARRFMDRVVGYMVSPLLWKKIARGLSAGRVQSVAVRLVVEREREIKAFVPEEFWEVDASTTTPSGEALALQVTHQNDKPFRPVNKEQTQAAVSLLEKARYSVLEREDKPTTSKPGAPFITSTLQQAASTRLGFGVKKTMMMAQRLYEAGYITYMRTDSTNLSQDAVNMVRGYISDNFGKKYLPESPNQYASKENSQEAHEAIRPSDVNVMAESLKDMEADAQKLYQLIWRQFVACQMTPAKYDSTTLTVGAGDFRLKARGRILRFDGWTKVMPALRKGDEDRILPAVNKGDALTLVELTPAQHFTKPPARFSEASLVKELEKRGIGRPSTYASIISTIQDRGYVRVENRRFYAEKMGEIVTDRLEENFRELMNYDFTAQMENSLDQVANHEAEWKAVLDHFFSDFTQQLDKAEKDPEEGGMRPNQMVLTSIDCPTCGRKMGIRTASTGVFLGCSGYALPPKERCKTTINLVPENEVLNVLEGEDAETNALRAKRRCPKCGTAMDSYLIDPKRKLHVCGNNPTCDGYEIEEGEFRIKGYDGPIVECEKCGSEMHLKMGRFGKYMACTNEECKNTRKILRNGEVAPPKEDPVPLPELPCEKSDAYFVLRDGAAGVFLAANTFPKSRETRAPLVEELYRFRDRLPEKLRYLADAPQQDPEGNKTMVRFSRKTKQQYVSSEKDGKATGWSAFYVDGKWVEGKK

E. coli DNA gyrase [10] = biological target: T1, E. coli DNA gyrase; experiment: E. coli DNA gyrase ATPase assay; type: biochemical; settings: AB-MECA and gallates at 100 µM
Description: E. coli DNA gyrase ATPase assays were performed in 60 µL of 1 ×gyrase ATPase buffer (10 mM Tris.HCl (pH 7.5), 0.2 mM EDTA, 1 mM magnesium chloride, 1 mM DTT, and 2% (w/v) glycerol) containing 50 nM E. coli DNA gyrase, 200 ng rx pAB1, 0.8 mM Phosphoenol pyruvate, 1.2 units of Pyruvate kinase, 1.7 units of lactate dehydrogenase, and 0.4 mM of NADH at 37° C. After the reaction mixtures are incubated on ice for 5 minutes, 2 mM of ATP is added to initiate the reaction. Absorbance at OD340nm is monitored for up to 30 minutes at 37° C. in a spectrophotometer.

[11] = biological target: human DNA topoisomerase I (Homo sapiens (Human), UniProt P11387); experiment: Human DNA topoisomerase I inhibition; type: biochemical; settings: gallates at 100 µM
human DNA topoisomerase I, sequence (P11387 whole entry): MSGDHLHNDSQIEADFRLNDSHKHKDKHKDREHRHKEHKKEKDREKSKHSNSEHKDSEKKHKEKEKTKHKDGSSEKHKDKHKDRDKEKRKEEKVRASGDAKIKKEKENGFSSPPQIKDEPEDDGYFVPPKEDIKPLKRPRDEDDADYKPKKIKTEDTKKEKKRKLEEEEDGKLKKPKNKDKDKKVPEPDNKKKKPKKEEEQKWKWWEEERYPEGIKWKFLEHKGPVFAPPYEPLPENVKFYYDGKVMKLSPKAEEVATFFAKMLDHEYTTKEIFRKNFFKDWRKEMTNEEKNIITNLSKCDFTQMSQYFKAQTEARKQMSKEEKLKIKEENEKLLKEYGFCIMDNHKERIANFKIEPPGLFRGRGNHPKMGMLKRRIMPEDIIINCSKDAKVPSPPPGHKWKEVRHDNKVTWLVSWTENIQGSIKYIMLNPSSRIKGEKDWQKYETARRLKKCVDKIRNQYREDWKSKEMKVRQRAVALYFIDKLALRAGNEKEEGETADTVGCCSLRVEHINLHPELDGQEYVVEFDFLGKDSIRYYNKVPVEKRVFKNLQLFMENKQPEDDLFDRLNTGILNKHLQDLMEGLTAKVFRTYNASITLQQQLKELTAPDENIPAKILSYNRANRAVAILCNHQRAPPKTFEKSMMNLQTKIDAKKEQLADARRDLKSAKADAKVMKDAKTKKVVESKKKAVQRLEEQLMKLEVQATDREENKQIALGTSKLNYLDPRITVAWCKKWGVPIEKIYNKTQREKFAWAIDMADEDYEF

[12] = ATCC33591 / MRSA, read-out: MIC MRSA ATCC 33591
[13] = ATCC25922, read-out: MIC E coli ATCC 25922, Table 9
[14] = ATCCBAA44 / MRSA, read-out: MIC S. aureus (MRSA) ATCC BAA44

Q: Which MIC (MRSA; [12]) does the source give for `CO[C@@H]1[C@@H](OC(N)=O)[C@@H](O)[C@H](Oc2ccc3c(O)c(NC(=O)c4ccc(O)c(CC=C(C)C)c4)c(=O)oc3c2C)OC1(C)C` [Novobiocin, novobiocin, reference compound] here?
A: < 6.25 µM

Q: What about the MIC (E. coli imp) of the same compound?
A: 6.25 µM (≈ 3.83 µg/mL)

Q: And the MIC (S. aureus (ATCC 14775))?
A: < 6.25 µM

Q: And the MIC (E. coli (ATCC 25922); [13])?
A: 158 µM

Q: And the MIC (B. subtilis (ATCC 6633))?
A: < 625 µM

Q: Which results are given for `CCCCCCCCOC(=O)c1cc(O)c(O)c(O)c1` [Octyl gallate, octyl gallate]?
A: MIC (MRSA; [12]): 100 µM; MIC (MRSA; [14]): 56.5 µg/mL; MIC (E. coli imp): 50 µM (≈ 14.1 µg/mL); MIC (S. aureus (ATCC 14775)): 56.5 µg/mL and 200 µM; IC50 (E. coli DNA gyrase [1]): 26 µM; IC50 (E. coli DNA gyrase [2]): 50 µM; MIC (E. coli (ATCC 25922); [13]): > 200 µM; MIC (E. coli (ATCC 25922); ATCC25922, read-out: MIC E. coli ATCC 25922, Table 7): 226 µg/mL; MIC (B. subtilis (ATCC 6633)): 4 µg/mL and 12.5 µM to 25 µM; inhibition of E. coli DNA topoisomerase IV [3]: strongly inhibit; IC50 [3]: 50 µM; IC50 [4]: 41.2 µM

Q: `O=C(Oc1ccccc1)c1cc(O)c(O)c(O)c1` [Phenyl gallate, phenyl gallate] was tested. Which MIC (MRSA; [12]) did it give?
A: 200 µM

Q: What about the MIC (MRSA; [14]) of the same compound?
A: 64 µg/mL

Q: And the MIC (E. coli imp)?
A: > 200 µM

Q: What about the MIC (S. aureus (ATCC 14775)) of the same compound?
A: 64 µg/mL and 200 µM

Q: What about the IC50 (E. coli DNA gyrase [1]) of the same compound?
A: > 100 µM

Q: What about the IC50 (E. coli DNA gyrase [2]) of the same compound?
A: > 100 µM

Q: What about the MIC (E. coli (ATCC 25922); [13]) of the same compound?
A: > 200 µM

Q: What about the MIC (B. subtilis (ATCC 6633)) of the same compound?
A: > 64 µg/mL and > 200 µM

Q: What about the IC50 [3] of the same compound?
A: > 100 µM

Q: What about the IC50 [4] of the same compound?
A: > 100 µM

Q: With `O=C(O)C1=CC(=C(c2ccc(O)c(C(=O)O)c2)c2ccc(O)c(C(=O)O)c2)C=CC1=O` [aurintricarboxylic acid] as the compound, how does the inhibition at 5 µM (E. coli DNA gyrase [5]) read?
A: > 40%

Q: What does the source list for `CNC(=O)[C@H]1O[C@@H](n2cnc3c(NCc4cccc(I)c4)nc(Cl)nc32)[C@H](O)[C@@H]1O` [chloro-IB-MECA, reference compound]?
A: inhibition of human DNA topoisomerase IIα [6]: did not inhibit; inhibition of Mtb DNA gyrase activities (Mtb DNA gyrase): did not inhibit; E. coli DNA gyrase-mediated DNA breaks and nicking (E. coli DNA gyrase [7]): did not DNA double stranded DNA breaks; IC50 (E. coli DNA gyrase [8]; IC50 against E. coli DNA gyrase): 2400 nM; IC50 (E. coli DNA gyrase [8]; read-out: IC50 against E. coli DNA gyrase): < 5000 nM; inhibition of E. coli DNA topoisomerase I [9]: did not inhibit; inhibition of E. coli DNA topoisomerase IV [3]: did not inhibit; inhibition of the ATPase activities of E. coli DNA gyrase (E. coli DNA gyrase [10]): ATP competitive inhibitors; also recorded: inhibition; inhibition of human DNA topoisomerase I [11]: did not inhibit

Q: For `CC1COc2c(N3CCN(C)CC3)c(F)cc3c(=O)c(C(=O)O)cn1c23` (stereo not drawn) [ofloxacin], which inhibition at 5 µM (E. coli DNA gyrase [5]) is on record?
A: > 40%

Q: Which “inhibition activities against E. coli DNA gyrase” value (E. coli DNA gyrase [5]; LOPAC library, 5 µM) does the source give for `N[C@@H]1[C@H]2CN(c3nc4c(cc3F)c(=O)c(C(=O)O)cn4-c3ccc(F)cc3F)C[C@@H]12` [trovafloxacin] here?
A: more than 40%
